Assay results published in patent US9910031B2, “Compositions and methods for modulating c-Rel-dependent cytokine production” (Synta Pharmaceuticals Corporation, priority 2003, dated 2018).

Columns and labels:
IL-12 p70 = test: Inhibition of production of IL-12 p70 protein; assay type: cell-based, human; conditions: 1 μM Compound 1; 10 mM ASA
Method: Cells were co-transfected with the vector pCMV (BD Biosciences Clontech) in which the constitutively active CMV promoter directs β-galactosidase expression for the monitoring of transfection efficiency. Luciferase and β-galactosidase activity were determined in cell extracts prepared according to the Luciferase assay system (Promega) and Luminescent n-gal Detection system (BD Biosciences Clontech). Luciferase activity was then normalized using the β-galactosidase value. […] ELISA was performed by the following method. Human IL-12 p70 (heterodimer) was assayed using ELI-PAIR kit from Cell Sciences (Norwood, Mass.), according to the manufacturer's instructions. Human IL-12 p40 was assayed using ELISA kit from Cell Sciences (Norwood, Mass.) according to the manufacturer's instructions.
The extracts obtained from this process were used in gel-shift assays using oligonucleotides containing the NFκB target sequence corresponding to the region −121 to −102 from the transcription initiation site of IL-12 p40 or a mutated NFκB binding site. […] This interaction was specific as it was competed away by an excess of unlabeled probe, but not by a mutated oligonucleotide in which two base-pairs were substituted. […] This is expected since a compound that potently blocks NFkB have a far broader cytokine inhibitory profile than Compound 1/Compound 2.

NFκB = test: Gel-shift assay of NFκB binding to the IL-12 p40 promoter site, THP-1 nuclear extracts; assay type: cell-based, human; conditions: IFN-γ-primed, SAC-stimulated THP-1; 1 μM Compound 1 or 10 mM ASA
Method: Nuclear extracts were prepared from IFN-γ-primed THP-1 cells that had been treated with or without SAC and incubated in the presence or absence of 1 μM Compound 1 or 10 mM ASA. Isolation of nuclear extracts was accomplished by first suspending THP-1 cells in 20 volumes of buffer A containing 10 mM KCl, 10 mM HEPES (pH 7.9), 1 mM MgCl2, 1 mM dithiothreitol (DTT), 0.1% Nonidet p40 (NP-40), and 0.5 mM phenylmethylsulfonyl fluoride (PMSF) and then homogenizing and centrifuging at 10,000 rpm at 4° C. for 5 min. Nuclear pellets were then suspended in buffer C containing 400 mM NaCl, 20 mM HEPES pH 7.9), 15 mM MgCl2, 0.2 mM EDTA, 1 mM DTT, 25% glycerol, 1 mM PMSF, and 10 μg of leupeptin, 20 μg of pepstatin, and 10 μg of antipain per ml, incubated for 30 min at 4° C., and centrifuge at 14,000 rpm for […]. The supernatants were dialyzed against buffer D containing 100 mM NaCl, 20 mM HEPES (pH 7.9), 20% glycerol, 1 mM PMSF, and 1 mM DTT.
The extracts obtained from this process were used in gel-shift assays using oligonucleotides containing the NFκB target sequence corresponding to the region −121 to −102 from the transcription initiation site of IL-12 p40 or a mutated NFκB binding site. […] This interaction was specific as it was competed away by an excess of unlabeled probe, but not by a mutated oligonucleotide in which two base-pairs were substituted. […]

CC(=O)Oc1ccccc1C(=O)O [ASA, reference compound]
percent inhibition of production of IL-12 p70 protein (IL-12 p70): 45%
NFκB binding to p40 promoter probe (gel shift) (NFκB): reduced the binding significantly
